From patent US20190175598A1, “COMBINATION THERAPIES FOR THE TREATMENT OF HEPATOCELLULAR CARCINOMA” (Eisai R&D Management Co., Ltd., priority 2016, published 2019)

Legend:
[1] = test system: human primary hepatocellular carcinoma model LIX066; assay: LIX066 patient derived xenograft model of hepatocellular carcinoma, antitumor activity; assay type: in vivo, mice; settings: Example 3, oral daily 17 days
Protocol: The human primary hepatocellular carcinoma model LIX066 model from ChemPartner (shangpharma.com) were implanted into the female severe combined immunodeficiency (SCID) mice. When the tumors developed in mice, the mice were sacrificed and the tumors were resected and implanted into female nude mice for tumor preservation, histopathology diagnosis and in vivo efficacy study. Solid tumor tissues were depleted of necrotic components, cut into 10-15 mg pieces, and mixed. Three to five pieces were mixed with […] Matrigel and implanted into a flank of 6-8-week-old female NU/NU immune compromised mice weighing 18-20 g nude mice. 30 mice with average tumor volume of 160 mm^3 selected and randomized into 6 groups of 5 mice each. All of the primary human tumors utilized in this study had undergone 3-5 passages in vivo and the tumor histology of each was maintained over the serial transplantation process. Per os (PO) treatment with Compound 1 (300 and 500 mg/kg) alone or in combination with vehicle (control) or palbociclib (100 mg/kg) administered once daily (QD) continued for 17 days. The administration volume (0.1 mL/10 g body weight) was calculated from the individual mouse body weight (BW) before administration. Body weights were measured daily and tumor measurements were performed twice weekly.
(§1) where Day X is any day of measurement
(§2) The anti-tumor effects of the treatment, Partial (PR) and complete regression (CR), stable (SD) and progressive (PD) disease were defined by the Xenograft Model Response Criteria (see below). Mice with >20% body weight loss compared to their Day 1 body weight or bearing tumors with the longest diameter […] were immediately euthanized to prevent any pain or suffering in the animal as according to IACUC guidelines.
Data are expressed as the mean±SEM for Tumor Volume (TV). The differences in TV between groups were analyzed by two way ANOVA followed by Sidak post hoc test. Statistical analyses were performed using the GraphPad Prism version 6 (GraphPad Software, La Jolla, Calif.). […]

[2] = test system: human hepatocellular cancer cell line JHH7 xenograft; assay: JHH7 xenograft model of hepatocellular carcinoma, antitumor activity; assay type: in vivo, mice; settings: PO QD 8 days
Protocol: The cell line used, JHH7, was sourced from Japanese Collection of Research Bioresources Cell Bank (JCRB), verified free of mycobacterium contamination and verified for identity by short tandem repeat analysis of 9 markers.
JHH7 cells were maintained in William's E Medium (Thermo Fisher Scientific, 12551-032) with 10% fetal bovine serum. Cells were maintained prior to and during experiments at 37° C. 5% CO2, and at 95% relative humidity. Cell passage number was limited to between 12 and 20.
The human hepatocellular cancer cell line JHH7 was cultured in William's E Medium (Thermo Fisher Scientific, 12551-032) containing 10% fetal bovine serum at 37° C. in a 5% CO2 atmosphere and kept in exponential growth phase. For harvesting, the cells were washed with phosphate buffered saline, incubated with 0.25% trypsin-EDTA, and suspended in a 1:1 mixture of William's E Medium and Matrigel (Corning) at a final concentration of 5×10^7 cells/mL. To generate xenografts, 0.1-mL of the inoculum was injected subcutaneously into the right flank region of NU/NU immuno compromised 6-8 week old female mice, giving a final concentration of 5×10^6 cells/mouse. When the mean tumor volume (TV) reached approximately 170 mm^3 (10 days after implantation), 144 mice were selected based on their TVs, and were sorted into 18 treatment groups with 8 animals per group. Per os (PO) treatment with Compound 1 (300 and 500 mg/kg) alone or in combination with vehicle (control) or palbociclib (50 and 100 mg/kg) or ribociclib (75 and 150 mg/kg) administered once daily (QD) continued for 8 days. The administration volume (0.1 mL/10 g body weight) was calculated from the individual mouse body weight (BW) before administration. Body weights were measured daily and tumor measurements were performed twice weekly.
as §1, §2
Data are expressed as the mean±SEM for Tumor Volume (TV). The differences in TV between groups were analyzed by two way ANOVA followed by Sidak post hoc test. Statistical analyses were performed using the GraphPad Prism version 6 (GraphPad Software, La Jolla, Calif.).
Progressive disease (PD): 3 consecutive measurements >120% of starting volume or 3 consecutive increasing measurements from best response, Stable disease (SD): 3 consecutive measurements >50% and <120% of starting volume, Partial regression (PR): 3 consecutive measurements <50% of starting volume, Complete regression (CR): 3 consecutive measurements <30 mm^3.

`C=CC(=O)Nc1cc(N2CCN(CC)CC2)ccc1Nc1cc(N(C)C(=O)Nc2c(Cl)c(OC)cc(OC)c2Cl)ncn1` [Compound 1, N-(2-((6-(3-(2,6-dichloro-3,5-dimethoxyphenyl)-1-methylureido)pyrimidin-4-yl)amino)-5-(4-ethylpiperazin-1-yl)phenyl)acrylamide] was tested, and the “Tumor Growth Inhibition % (TGI)” value ([1]; Compound 1 300 mg/kg single agent, vs vehicle controls (P≤0.0001)) was 59%, the “Tumor Growth Inhibition % (TGI)” value ([1]; Compound 1 500 mg/kg single agent, vs vehicle controls (P≤0.0001)) was 70% and the “Tumor Growth Inhibition % (TGI)” value ([2]; Example 1, Compound 1 300 mg/kg single agent, vs vehicle controls) was 14%. For the same molecule, the “Tumor Growth Inhibition % (TGI)” value ([2]; Example 1, Compound 1 500 mg/kg single agent, vs vehicle controls) was 35%, the “Tumor Growth Inhibition % (TGI)” value ([2]; Example 2, Compound 1 300 mg/kg single agent, vs vehicle controls (P≤0.01)) was 12% and the “Tumor Growth Inhibition % (TGI)” value ([2]; Example 2, Compound 1 500 mg/kg single agent, vs vehicle controls (P≤0.0001)) was 32%.
`CC(=O)c1c(C)c2cnc(Nc3ccc(N4CCNCC4)cn3)nc2n(C2CCCC2)c1=O` [Palbociclib, 6-acetyl-8-cyclopentyl-5-methyl-2-{[5-(piperazin-1-yl)pyridin-2-yl]amino}pyrido[2,3-d]pyrimidin-7(8H)-one, reference compound] was tested, and the “Tumor Growth Inhibition % (TGI)” value ([1]; palbociclib 100 mg/kg single agent, vs vehicle controls (P≤0.001)) was 62%, the “Tumor Growth Inhibition % (TGI)” value ([2]; Example 2, palbociclib 50 mg/kg single agent, vs vehicle controls (not significant)) was 11% and the “Tumor Growth Inhibition % (TGI)” value ([2]; Example 2, palbociclib 100 mg/kg single agent, vs vehicle controls (P≤0.05)) was 26%.
`CN(C)C(=O)c1cc2cnc(Nc3ccc(N4CCNCC4)cn3)nc2n1C1CCCC1` [Ribociclib, 7-Cyclopentyl-2-(5-piperazin-1-yl-pyridin-2-ylamino)-7H-pyrrolo[2,3-d]pyrimidine-6-carboxylic acid dimethylamide, reference compound] was tested, and the “Tumor Growth Inhibition % (TGI)” value ([2]; Example 1, ribociclib 75 mg/kg single agent, vs vehicle controls (not significant)) was 13% and the “Tumor Growth Inhibition % (TGI)” value ([2]; Example 1, ribociclib 150 mg/kg single agent, vs vehicle controls (P≤0.0001)) was 23%.
